Measured values reported in ChEMBL document CHEMBL4813951 (Eur J Med Chem, 2021).

Key:
Histamine H2 receptor [1] = target: T1, Histamine H2 receptor (Homo sapiens, UniProt P25021); experiment: Displacement of [3H]UR-DE257 from human histamine H2 receptor expressed in sf9 insect cell membranes co-expressing GSalphaS incubated for 60 mins by microbeta scintillation counting method; design: species or system Membrane
Histamine H2 receptor [2] = target: T1, Histamine H2 receptor; experiment: Agonist activity at human histamine receptor expressed in sf9 insect cell membranes co-exprssing GsalphaS incubated for 90 mins [35S]GTPgammaS binding based microbeta scintillation counting analysis; assay type: functional, Membrane
Histamine H2 receptor [3] = target: T1, Histamine H2 receptor; experiment: Agonist activity at human histamine H2 receptor expressed in HEK293T cells co-expressing ELucC by beta arrestin2 recruitment assay; assay type: functional, cell-based
Histamine H2 receptor [4] = target: T1, Histamine H2 receptor; experiment: Agonist activity at human histamine H2 receptor expressed in sf9 insect cell membranes co-exprssing GsalphaS assessed as intrinsic activity at >=30 uM incubated for 90 mins [35S]GTPgammaS binding based microbeta scintillation counting analysis relative to histamine; assay type: functional; conditions: Membrane, filed as agonist, dose microM >=30, time 90.0 min
Histamine H4 receptor = Histamine H4 receptor (Homo sapiens, UniProt Q9H3N8)
Histamine H1 receptor = Histamine H1 receptor (Homo sapiens, UniProt P35367); experiment: Displacement of [3H]mepyramine from human histamine H1 receptor expressed in sf9 insect cell membranes co-expressing RGS4 incubated for 60 mins by microbeta scintillation counting method; design: species or system Membrane
Histamine H3 receptor = Histamine H3 receptor (Homo sapiens, UniProt Q9Y5N1); experiment: Displacement of [3H]UR-P129 from human histamine H3 receptor expressed in sf9 insect cell membranes co-expressing Galphai2/Gbeta1gamma2 incubated for 60 mins by microbeta scintillation counting method; design: species or system Membrane
Histamine H2 receptor [5] = target: Histamine H2 receptor (Cavia porcellus, UniProt P47747); experiment: Agonist activity at guinea pig right atrium histamine H2 receptor assessed as increase in heart rate incubated for 30 mins in presence of cimetidine; assay type: functional, tissue-based, Right cardiac atrium
[6] = target: Histamine H2 receptor (Cavia porcellus) (UniProt P47747); experiment: Agonist activity at guinea pig right atrium histamine H2 receptor assessed as intrinsic activity incubated for 30 mins in presence of cimetidine relative to histamine; assay type: functional, tissue-based; conditions: Right cardiac atrium, filed as agonist
D(3) dopamine receptor [7] = target: T2, D(3) dopamine receptor (Homo sapiens, UniProt P35462); experiment: Displacement of [3H]N-methylspiperone from human D3 receptor expressed in HEK293T cells co-expressing CRE-Luc incubated for 60 mins by microbeta scintillation counting method; assay type: cell-based
D(3) dopamine receptor [8] = target: T2, D(3) dopamine receptor; experiment: Agonist activity at […] expressed in HEK293T cells co-expressing ELucC by beta arrestin2 recruitment assay; assay type: functional, cell-based

Chain of Histamine H2 receptor (Cavia porcellus) (P47747 whole entry): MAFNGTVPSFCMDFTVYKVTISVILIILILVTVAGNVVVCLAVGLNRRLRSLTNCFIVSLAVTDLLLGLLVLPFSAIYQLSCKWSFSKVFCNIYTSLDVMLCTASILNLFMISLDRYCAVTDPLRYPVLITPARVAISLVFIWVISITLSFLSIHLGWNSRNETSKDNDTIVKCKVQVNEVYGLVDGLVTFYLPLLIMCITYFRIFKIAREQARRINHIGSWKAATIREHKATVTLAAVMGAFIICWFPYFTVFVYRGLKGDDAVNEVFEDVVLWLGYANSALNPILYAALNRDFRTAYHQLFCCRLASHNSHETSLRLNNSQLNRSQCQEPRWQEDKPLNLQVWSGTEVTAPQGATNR
Chain of Histamine H2 receptor (Cavia porcellus, UniProt P47747) (P47747 whole entry): as above
T1 sequence (P25021 whole entry): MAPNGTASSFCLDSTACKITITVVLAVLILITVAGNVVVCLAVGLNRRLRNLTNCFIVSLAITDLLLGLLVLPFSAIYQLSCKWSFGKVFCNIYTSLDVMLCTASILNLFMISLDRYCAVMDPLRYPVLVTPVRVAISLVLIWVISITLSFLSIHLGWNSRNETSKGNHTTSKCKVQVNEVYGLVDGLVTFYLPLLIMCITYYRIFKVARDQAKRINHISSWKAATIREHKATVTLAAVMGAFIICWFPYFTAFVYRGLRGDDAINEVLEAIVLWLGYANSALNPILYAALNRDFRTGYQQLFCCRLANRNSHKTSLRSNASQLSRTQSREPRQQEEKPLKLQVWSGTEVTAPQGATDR
Chain of Histamine H3 receptor (Q9Y5N1 whole entry): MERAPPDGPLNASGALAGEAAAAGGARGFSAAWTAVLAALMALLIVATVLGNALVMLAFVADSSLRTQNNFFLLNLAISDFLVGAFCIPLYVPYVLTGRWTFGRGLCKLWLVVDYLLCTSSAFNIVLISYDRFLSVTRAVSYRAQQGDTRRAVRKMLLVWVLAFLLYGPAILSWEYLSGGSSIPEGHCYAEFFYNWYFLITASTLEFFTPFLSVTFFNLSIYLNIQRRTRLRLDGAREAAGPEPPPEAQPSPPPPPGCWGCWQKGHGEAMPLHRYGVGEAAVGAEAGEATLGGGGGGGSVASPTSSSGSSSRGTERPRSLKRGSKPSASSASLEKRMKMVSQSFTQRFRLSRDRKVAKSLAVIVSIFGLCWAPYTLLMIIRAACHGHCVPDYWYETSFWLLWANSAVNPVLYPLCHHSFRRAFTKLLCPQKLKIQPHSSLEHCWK
Chain of Histamine H4 receptor (Q9H3N8 whole entry): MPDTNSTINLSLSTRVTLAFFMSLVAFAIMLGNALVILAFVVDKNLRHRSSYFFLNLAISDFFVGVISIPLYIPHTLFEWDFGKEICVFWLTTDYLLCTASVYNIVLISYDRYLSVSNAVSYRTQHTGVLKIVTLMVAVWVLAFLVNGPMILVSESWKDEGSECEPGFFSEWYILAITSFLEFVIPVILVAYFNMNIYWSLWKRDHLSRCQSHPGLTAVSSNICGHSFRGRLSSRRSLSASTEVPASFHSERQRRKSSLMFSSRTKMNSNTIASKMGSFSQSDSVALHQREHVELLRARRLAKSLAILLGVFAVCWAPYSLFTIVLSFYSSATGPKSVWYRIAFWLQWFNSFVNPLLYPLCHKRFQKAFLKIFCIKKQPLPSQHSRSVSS
T2 sequence (P35462 whole entry): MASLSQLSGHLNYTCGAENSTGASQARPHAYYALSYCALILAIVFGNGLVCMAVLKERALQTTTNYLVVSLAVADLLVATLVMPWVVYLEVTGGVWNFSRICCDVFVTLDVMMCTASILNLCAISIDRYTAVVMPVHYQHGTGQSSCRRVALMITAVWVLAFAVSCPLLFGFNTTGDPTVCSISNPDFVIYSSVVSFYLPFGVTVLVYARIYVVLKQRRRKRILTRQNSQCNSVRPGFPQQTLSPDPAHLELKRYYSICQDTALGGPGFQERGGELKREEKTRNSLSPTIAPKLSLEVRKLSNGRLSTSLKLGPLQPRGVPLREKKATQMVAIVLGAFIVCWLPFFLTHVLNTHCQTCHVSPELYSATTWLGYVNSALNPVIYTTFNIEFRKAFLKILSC
Chain of Histamine H1 receptor (P35367 whole entry): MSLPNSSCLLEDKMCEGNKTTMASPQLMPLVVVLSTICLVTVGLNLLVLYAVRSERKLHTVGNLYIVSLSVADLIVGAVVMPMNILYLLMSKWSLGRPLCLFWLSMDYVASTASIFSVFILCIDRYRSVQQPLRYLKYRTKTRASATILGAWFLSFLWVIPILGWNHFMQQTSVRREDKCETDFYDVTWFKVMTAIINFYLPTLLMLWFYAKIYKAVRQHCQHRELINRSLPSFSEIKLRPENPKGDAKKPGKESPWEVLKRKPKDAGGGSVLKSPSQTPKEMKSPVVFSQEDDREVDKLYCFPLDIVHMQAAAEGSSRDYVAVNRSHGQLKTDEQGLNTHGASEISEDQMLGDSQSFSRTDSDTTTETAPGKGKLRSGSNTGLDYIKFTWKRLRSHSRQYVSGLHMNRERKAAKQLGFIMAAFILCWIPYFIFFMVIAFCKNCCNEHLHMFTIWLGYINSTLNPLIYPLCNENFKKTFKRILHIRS

SMILES	Ki (Histamine H2 receptor [1])	EC50 (Histamine H2 receptor [2])	EC50 (Histamine H2 receptor [3])	Intrinsic activity (Histamine H2 receptor [4])	Ki (Histamine H4 receptor)	Ki (Histamine H1 receptor)	Ki (Histamine H3 receptor)	EC50 (Histamine H2 receptor [5])	Intrinsic activity [6]	Ki (D(3) dopamine receptor [7])	EC50 (D(3) dopamine receptor [8])
Cc1nc(N)sc1CCCN/C(N)=N/C(=O)NCCc1ccccc1	158 nM	44.7 nM	166 nM	0.72	14.8 µM	–	–	–	–	–	–
Cc1nc(N)sc1CCCN/C(N)=N/C(=O)NC(C)c1ccc(OC(F)(F)F)cc1 (centres undefined)	126 nM	–	–	–	8.13 µM	21.9 µM	14.5 µM	724 nM	0.61	–	–
Cc1nc(N)sc1CCCN/C(N)=N/C(=S)N[C@@H](C)c1ccccc1	339 nM	–	–	–	55 µM	77.6 µM	81.3 µM	224 nM	0.65	–	–
N/C(=N\C(=O)NCCc1ccccc1)Nc1cccc(-c2csc(N)n2)c1	–	–	–	–	30.2 µM	–	–	–	–	–	–
Cc1nc(N)sc1CCCN/C(N)=N/C(=O)NC(C)c1cccs1 (centres undefined)	63.1 nM	–	–	–	30.2 µM	25.7 µM	58.9 µM	10 nM	0.88	–	–
Cc1nc(N)sc1CCCN/C(N)=N/C(=O)NCc1ccco1	10.5 nM	–	–	–	75.9 µM	24 µM	74.1 µM	11.7 nM	0.58	–	–
COc1ccc(C(C)NC(=O)/N=C(\N)NCCCc2sc(N)nc2C)cc1 (centres undefined)	37.2 nM	–	–	–	20 µM	5.89 µM	33.1 µM	38 nM	0.91	–	–
CCCNC(=O)/N=C(\N)NCCCc1sc(N)nc1C	105 nM	178 nM	170 nM	0.79	87.1 µM	28.8 µM	44.7 µM	–	–	–	–
Cc1nc(N)sc1CCCN/C(N)=N/C(=O)NC(C)c1ccc(Br)cc1 (centres undefined)	30.2 nM	–	–	–	8.13 µM	2.88 µM	12.9 µM	55 nM	0.87	–	–
Cc1nc(N)sc1CCCN/C(N)=N/C(=O)NC[C@H](C)c1ccccc1	100 nM	–	–	–	12 µM	8.71 µM	17 µM	25.7 nM	0.99	–	–
Cc1nc(N)sc1CCCN/C(N)=N/C(=O)NC(C)c1ccc(Cl)cc1 (centres undefined)	46.8 nM	–	–	–	8.51 µM	4.47 µM	17.8 µM	24.5 nM	0.93	–	–
Cc1nc(N)sc1CCCN/C(N)=N/C(=O)NC(C)c1cccc(F)c1 (centres undefined)	2.04 nM	–	64.6 nM	–	13.2 µM	7.76 µM	38.9 µM	26.3 nM	–	8.71 nM	72.4 nM
Cc1nc(N)sc1CCCN/C(N)=N/C(=O)NCC(C)CCCc1ccccc1 (centres undefined)	60.3 nM	–	2510 nM	–	0.776 µM	7.08 µM	2.29 µM	–	–	–	–
N/C(=N\C(=O)NCc1ccccc1)Nc1cccc(-c2csc(N)n2)c1	–	–	–	–	34.7 µM	–	–	–	–	–	–
Cc1nc(N)sc1CCCN/C(N)=N/C(=S)NC[C@@H](C)c1ccccc1	427 nM	–	–	–	32.4 µM	52.5 µM	83.2 µM	148 nM	0.66	–	–
Cc1nc(N)sc1CCCN/C(N)=N/C(=O)NC(C)c1ccc(F)cc1 (centres undefined)	31.6 nM	–	–	–	13.8 µM	10.2 µM	25.7 µM	23.4 nM	0.92	–	–

SMILES	Ki (Histamine H2 receptor [1])	EC50 (Histamine H2 receptor [2])	EC50 (Histamine H2 receptor [3])	Intrinsic activity (Histamine H2 receptor [4])	Ki (Histamine H4 receptor)	Ki (Histamine H1 receptor)	Ki (Histamine H3 receptor)	EC50 (Histamine H2 receptor [5])	Intrinsic activity [6]	Ki (D(3) dopamine receptor [7])	EC50 (D(3) dopamine receptor [8])
Cc1ccc(CC(C)CNC(=O)/N=C(\N)NCCCc2sc(N)nc2C)cc1 (centres undefined)	72.4 nM	60.3 nM	132 nM	–	3.63 µM	1.66 µM	3.24 µM	–	–	–	–
CCC(CNC(=O)/N=C(\N)NCCCc1sc(N)nc1C)c1ccccc1 (centres undefined)	77.6 nM	28.8 nM	269 nM	–	6.76 µM	7.94 µM	16.6 µM	–	–	64.6 nM	40.7 nM
Cc1nc(N)sc1CCCN/C(N)=N/C(=O)NCC(c1ccccc1)c1ccccc1	87.1 nM	–	–	–	4.9 µM	5.25 µM	10 µM	174 nM	0.76	–	–
Cc1nc(N)sc1CCCN/C(N)=N/C(=O)NC[C@@H](C)c1ccccc1	102 nM	–	–	–	13.5 µM	9.55 µM	26.9 µM	12.9 nM	0.98	–	–
Cc1nc(N)sc1CCCN/C(N)=N/C(=S)NC(c1ccccc1)c1ccccc1	603 nM	–	–	–	23.4 µM	46.8 µM	43.7 µM	66.1 nM	0.67	–	–
Cc1nc(N)sc1CCCN/C(N)=N/C(=O)NC(c1ccccc1)C(C)C (centres undefined)	35.5 nM	–	–	–	7.94 µM	24.5 µM	19.1 µM	34.7 nM	1.04	–	–
CCC(NC(=O)/N=C(\N)NCCCc1sc(N)nc1C)c1ccccc1 (centres undefined)	63.1 nM	–	–	–	11.2 µM	12.6 µM	21.9 µM	10.7 nM	0.93	–	–
CCCN[C@@H]1CCc2nc(N)sc2C1 [DEXPRAMIPEXOLE]	13800 nM	8510 nM	39800 nM	–	–	–	–	–	–	–	–
Cc1nc(N)sc1CCCN/C(N)=N/C(=O)NC(c1ccccc1)C(F)(F)F (centres undefined)	229 nM	–	–	–	17.4 µM	53.7 µM	31.6 µM	47.9 nM	0.85	–	–
Cc1ccc(C(C)NC(=O)/N=C(\N)NCCCc2sc(N)nc2C)cc1 (centres undefined)	30.9 nM	–	–	–	11.2 µM	5.13 µM	26.3 µM	22.4 nM	0.85	–	–
Cc1nc(N)sc1CCCN/C(N)=N/C(=O)NC(C)c1ccccc1F (centres undefined)	28.8 nM	–	–	–	12.9 µM	17 µM	30.9 µM	12.3 nM	0.93	–	–
Cc1nc(N)sc1CCCN/C(N)=N/C(=O)N[C@@H](C)c1ccccc1	51.3 nM	–	–	–	17.8 µM	21.4 µM	33.1 µM	23.4 nM	–	24.5 nM	229 nM
Cc1nc(N)sc1CCCN/C(N)=N/C(=S)NC[C@H](C)c1ccccc1	1150 nM	–	–	–	44.7 µM	63.1 µM	69.2 µM	490 nM	0.44	–	–
Cc1nc(N)sc1CCCN/C(N)=N/C(=O)NC1CCCCC1	170 nM	148 nM	389 nM	–	31.6 µM	24.5 µM	–	–	–	–	–
Cc1nc(N)sc1CCCN/C(N)=N/C(=O)Nc1ccccc1	3160 nM	525 nM	3390 nM	0.59	22.4 µM	–	–	–	–	–	–
Cc1nc(N)sc1CCCN/C(N)=N/C(=O)NC(c1ccccc1)c1ccccc1	–	–	–	–	6.31 µM	15.8 µM	9.12 µM	39.8 nM	–	–	–
